Here are results for 9 compounds from US4916147A, “3-[(4-Aroyl) phenoxy (or phenylthio)]-cyclopentanecarboxylic acid analogues and treatment of cerebral edema therewith” (Ono Pharmaceutical Co., Ltd., priority 1985, dated 1990).

By IC50 is commonly meant the midpoint of a concentration-inhibition curve. Usually inhibition stands for the relative decrease from the control value, in per cent.

The subject of data set [1] is organ slice of cat cerebral cortex. Description: Inhibition test on cerebral edema using organ slice of cat cerebral cortex (NaHCO3-stimulated swelling). The class given is cell-based. The settings on record: Felis catus, 50 min, cat cerebral cortex slices, 50 minutes at 37° C., pH 7.4, swelling stimulated with NaHCO3; for IC50: read-out: inhibitory activity of cerebral edema (IC50); for inhibition at 0.01 µM: 10^-8 M, read-out: a percentage of inhibition of swelling at 10^-8 M (%). Here is the method:
THE INHIBITION TEST ON CEREBRAL EDEMA USING ORGAN SLICE OF CAT CEREBRAL CORTEX
The test was carried out by the method described in Journal of Medicinal Chemistry, Vol. 25 (No. 5), 567 (1982).
That is, brain was isolated from a cat weighing 2~4 kg, slices of about 1 mm in thickness was prepared, the white matter substance was removed, and the gray matter substance (100~150 mg a test) was used for a sample. The sample was added to the following incubation medium and incuvated for 50 minutes at 37° C. After the incubation, the sample was immediately weighed again to determine the swelling weight of the sample.
(osmotic pressure, 280~290 mOsm/l)
1. Hepes Buffer (pH 7.4). . . 2.365 ml
adjusted to pH 7.4 by NaOH
2. test compounds [dissolved in the presence of tris(hydroxymethyl) aminomethane] or water. . . 0.01 ml
3. 0.2M NaHCO3 (dissolved by Hepes Buffer, giving the final concentration of 10 mM in medium) or Hepes Buffer. . . 0.125 ml
The test was carried out by using NaHCO3 as a stimulating agent of swelling.
(A) A percentage of swelling when a slice sample was added to incubation medium comprising Hepes Buffer, water and NaHCO3 (defined as maximum of swelling).
(B) A percentage of swelling when a slice sample was added to incubation medium comprising Hepes Buffer and water (defined as maximum inhibition of swelling).
(C) A percentage of swelling when a slice sample was added to incubation medium comprising Hepes Buffer, the test compounds in various concentrations and NaHCO3.
Above-mentioned (A), (B) and (C) were determined. Inhibition percentage of the test compounds was caliculated by the following equation: [formula] IC50 value was determined by dose-response curve as a concentration in which inhibition percentage was 50.
The results are shown Table I. And further, percentages of swelling of (C) was counted, in the case that concentration of test compound of (C) was 10^-8 M, and inhibition of swelling at the concentration of 10^-8 M was determined by percentages of swelling of both (A) and (B).

The test system of a further data set is mice. Put plainly: Acute toxicity test in mice by intravenous administration. The class given is in vivo. The settings on record: dead/treated. Here is the method:
For example, in the acute toxicity test in mice by intravenous administration, the mortality of compound of example 1 and 1-3 are 0/6 and 0/6 at the dose of 100 mg/kg and are 6/6 and 4/6 at the dose of 200 mg/kg, respectively.

As for `O=C(c1ccccc1)c1ccc(O[C@H]2CC[C@H](C(=O)O)C2)c(Cl)c1Cl` [Example 1, (1S,3S)-3-[(2,3-dichloro-4-benzoyl)phenoxy]cyclopentanecarboxylic acid], the IC50 in data set [1] stood at 5.5 nM. Besides, the mortality was 0/6 in the data set on mice (100 mg/kg) and 6/6 in the data set with mice (200 mg/kg).

`O=C(c1cccs1)c1ccc(O[C@H]2CC[C@H](C(=O)O)C2)c(Cl)c1Cl` [Example 1-3, (1S,3S)-3-[{2,3-dichloro-4-(2-thenoyl)}phenoxy]cyclopentanecarboxylic acid]: in data set [1], the IC50 stood at 2.2 nM. Moreover, the values for the mortality with mice (100 mg/kg) and in the data set on mice (200 mg/kg) were 0/6 and 4/6, respectively.

As to `O=C(c1ccccc1F)c1ccc(O[C@H]2CC[C@H](C(=O)O)C2)c(Cl)c1Cl` [Example 1-8, (1S,3S)-3-[{2,3-dichloro-4-(2-fluorobenzoyl)}phenoxy]cyclopentanecarboxylicacid], in data set [1], the inhibition at 0.01 µM worked out at 82% and the IC50 is 2.6 nM.

As for `O=C(c1cccc([N+](=O)[O-])c1)c1ccc(O[C@H]2CC[C@H](C(=O)O)C2)c(Cl)c1Cl` [Example 1-12, (1S,3S)-3-[{2,3-dichloro-4-(3-nitrobenzoyl)}phenoxy]cyclopentanecarboxylic acid], in data set [1], the inhibition at 0.01 µM turned out to be 52%.

For `O=C(Cc1ccccc1)c1ccc(O[C@H]2CC[C@H](C(=O)O)C2)c(Cl)c1Cl` [Example 1-13, (1S,3S)-3-[(2,3-dichloro-4-phenylacetyl)phenoxy]cyclopentanecarboxylic acid], the inhibition at 0.01 µM in data set [1] was found to be 36%.

On to `O=C(c1ccc(O[C@H]2CC[C@H](C(=O)O)C2)c(Cl)c1Cl)c1cccc2ccccc12` [Example 1-19, (1S,3S)-3-[{2,3-dichloro-4-(1-naphthoyl)}phenoxy]cyclopentanecarboxylic acid], for which, in data set [1], the inhibition at 0.01 µM turned out to be 90% and the IC50 turned out to be 4.1 nM.

Regarding `Cc1cccc(C(=O)c2ccc(O[C@H]3CC[C@H](C(=O)O)C3)c(Cl)c2Cl)c1` [Example 1-20, (1S,3S)-3-[{2,3-dichloro-4-(3-methylbenzoyl)}phenoxy]cyclopentanecarboxylicacid], the inhibition at 0.01 µM in data set [1] is 78%.

With `O=C(c1ccccc1)c1ccc(O[C@H]2CC[C@H](C(=O)O)C2)cc1Cl` [Example 1-25, (1S,3S)-3-[(3-chloro-4-benzoyl)phenoxy]cyclopentanecarboxylic acid], in data set [1], the inhibition at 0.01 µM worked out at 100% and the IC50 came to 3 nM.

On to `O=C(c1ccccc1)c1ccc(O[C@H]2CC[C@H](C(=O)O)C2)c2ccccc12` [Example 4, (1S,3S)-3-(4-benzoyl-1-naphthoxy)cyclopentanecarboxylic acid], for which, in data set [1], the inhibition at 0.01 µM came out at 41%.
